Assay results taken from publication PMC12550276 (Life Science Alliance, 2025).

Legend:
[1] = biological target: T1, REPh (Phrixothrix hirtus, UniProt Q9U4U7, L334R); assay: HDX-MS, apo vs ligand-bound; type: binding; conditions: 5 mM ATP together with 5 mM luciferin (not separable), 50 mM MgCl2, pD 7.5, 25°C
T1 construct: N-terminal His6-tag kept (no cleavage told), pET28b, E. coli BL21-CodonPlus-RIL; ~550 residues; higher oligomer by SEC (octamer in crystal)
T1 sequence (Q9U4U7 1-546 L334R): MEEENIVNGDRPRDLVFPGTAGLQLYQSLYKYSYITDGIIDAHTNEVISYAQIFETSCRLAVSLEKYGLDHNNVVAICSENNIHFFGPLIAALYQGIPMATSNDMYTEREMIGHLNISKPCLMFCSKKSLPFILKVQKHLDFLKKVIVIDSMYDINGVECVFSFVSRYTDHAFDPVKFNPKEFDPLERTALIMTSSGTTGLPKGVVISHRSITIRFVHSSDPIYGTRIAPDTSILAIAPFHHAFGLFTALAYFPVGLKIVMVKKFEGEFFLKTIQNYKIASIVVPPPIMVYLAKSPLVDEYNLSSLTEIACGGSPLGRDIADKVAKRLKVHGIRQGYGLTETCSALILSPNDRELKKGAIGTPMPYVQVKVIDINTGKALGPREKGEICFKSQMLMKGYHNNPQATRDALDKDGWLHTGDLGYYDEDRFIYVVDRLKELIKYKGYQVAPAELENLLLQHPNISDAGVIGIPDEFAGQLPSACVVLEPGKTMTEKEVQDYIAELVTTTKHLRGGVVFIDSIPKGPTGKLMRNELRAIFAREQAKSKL

[2] = biological target: T2, GBAv (Amydetes, UniProt A0A3F2YLV6, R337L); assay: HDX-MS, apo vs ligand-bound; type: binding; conditions: 5 mM ATP together with 5 mM luciferin (not separable), 50 mM MgCl2, pD 7.5, 25°C
T2 construct: N-terminal His6-tag kept (no cleavage told), pET28b, E. coli BL21-CodonPlus-RIL; ~550 residues; monomer by SEC
T2 sequence (A0A3F2YLV6 entry or part of it R337L): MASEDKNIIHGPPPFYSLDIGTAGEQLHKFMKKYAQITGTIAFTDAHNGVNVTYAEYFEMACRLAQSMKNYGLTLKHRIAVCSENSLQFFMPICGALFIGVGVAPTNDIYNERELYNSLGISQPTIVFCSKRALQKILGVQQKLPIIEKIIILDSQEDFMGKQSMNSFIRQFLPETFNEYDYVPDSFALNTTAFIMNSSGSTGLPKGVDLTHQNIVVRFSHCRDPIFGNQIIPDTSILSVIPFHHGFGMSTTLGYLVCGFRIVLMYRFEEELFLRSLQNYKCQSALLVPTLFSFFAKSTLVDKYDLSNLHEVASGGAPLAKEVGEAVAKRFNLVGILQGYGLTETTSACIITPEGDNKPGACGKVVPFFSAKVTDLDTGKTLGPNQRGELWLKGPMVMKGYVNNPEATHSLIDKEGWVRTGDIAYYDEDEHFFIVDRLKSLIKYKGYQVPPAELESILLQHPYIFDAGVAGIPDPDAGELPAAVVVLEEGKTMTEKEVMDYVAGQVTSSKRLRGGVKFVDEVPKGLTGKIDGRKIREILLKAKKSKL

Nc1ncnc2c1ncn2[C@@H]1O[C@H](COP(=O)(O)OP(=O)(O)OP(=O)(O)O)[C@@H](O)[C@H]1O [ATP]
HDX-MS, apo vs ligand-bound [1]: Upon substrate binding, deuterium uptake by peptides-2 and -3 decreased in all variants | HDX-MS, apo vs ligand-bound [2]: Upon substrate binding, deuterium uptake by peptides-2 and -3 decreased in all variants
